The results in this text go back to EP4324461A1, “(E)-N-CINAMOYLAMINOALKANOLES WITH MELANOGENESIS INHIBITORY ACTIVITY” (UNIWERSYTET JAGIELLONSKI, priority 2022, dated 2024).

In general, IC50 refers to the concentration at which inhibition is half-maximal.

Read-outs that look alike come from different tables or passages of the source.

For one series, the system named is Primary melanocytes. The series can be described thus: Safety, MTT test in primary melanocytes. Format: cell-based. As to conditions: 48 hours. Here is the method: In order to test the safety of the compounds, both normal human cells were used: keratinocytes (HaCaT), fibroblasts (BJ), primary melanocytes that occur in the skin, as well as human cancer cells: the hepatocarcinoma line HepG2 and the neuroblastoma line SH-SY5Y, which are considered a model for the assessment of hepatocytotoxicity and neurocytotoxicity. The concentrations of the tested compounds in the range of 250-100 µM were used in the studies. The cell lines used in the research were purchased from the American Type Culture Collection (ATCC) and were cultured in media recommended by the manufacturer with the addition of FBS and antibiotics in an incubator ensuring appropriate culture conditions, i.e. humidity, temperature and CO2 concentration. Cells were seeded into multiwell plates and incubated with the test compounds for 48 hours. After this time, MTT and LDH tests were performed to assess cell viability. The MTT test is based on the ability to transform the substrate: [3-(4,5-dimethyl-2-thiazolyl)-2,5-diphenyl-2H-tetrazolium bromide into a colored product only by living cells. The absorbance at 570 nm, which corresponds to the absorption maximum for the product, is directly proportional to cell viability. The LDH test is based on testing the activity of the enzyme lactate dehydrogenase in the culture medium, which is released from cells as a result of damage to the cell membrane, e.g. as a result of cell death. Triton X-100 was used as a positive control in the test. The determination is colorimetric, the substrate is transformed by the released enzyme into a colored product, an increase in absorbance indicates a larger amount of the released enzyme, and thus confirms greater damage to cell membranes. Tables 7 and 8 present the results obtained, which correspond to the viability of cells incubated with the compounds in relation to the viability of cells constituting a control sample, i.e. incubated with the solvent (DMSO) at the same concentration as in the case of the groups tested in the MTT test or in relation to the results obtained for the Triton X-100 positive control in the LDH test. They indicate that the compounds are safe at the concentrations tested. Table 7. Viability of tested normal human cell lines: keratinocytes (HaCaT), fibroblasts (BJ) and primary melanocytes after incubation with the tested compounds - determination in the MTT test (% of solvent control ± SD) and LDH (percentage of positive control - Triton X-100.
(Tetrazolium dyes change colour on reduction, which living cells bring about.)

Series [1] has as its system B16-F10 murine melanoma cell line. The series can be described thus: Cytotoxicity in B16-F10 cells (MTT). Format: cell-based. As to conditions: 48 h. The method, boiled down: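 Cells in F10-Ham with 1% FBS exposed to various compound concentrations for 48 h after 24 h pre-culture. MTT read-out: formazan dissolved in DMSO, absorbance at 570 nm. Viability expressed as percent of DMSO control (AT/AC×100).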

Series [2] can be described thus: Lipophilicity coefficient RM0 by reversed phase thin layer chromatography. Type of series: physicochemical. Particulars: RP-18 TLC, methanol / 100 mM phosphate buffer pH = 7.4. The method, boiled down: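 Reversed-phase TLC on RP-18 F254 silica, with methanol/100 mM phosphate buffer pH 7.4 mobile phases of 95–65% (v/v) methanol, at room temperature, in duplicate. Spots were visualized under UV at 254 nm. RM = log(1/Rf − 1) was plotted linearly against methanol content to derive RM0.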

The next series has as its system tyrosinase from mushroom. The series can be described thus: Inhibition of commercial mushroom tyrosinase (L-DOPA or L-tyrosine substrate). Format: biochemical. The method, boiled down:
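Tyrosinase (1U/well or 3U/well) in 50 mM phosphate buffer pH 6.8 with compound at final 500, 250 or 125 µM; L-DOPA (diphenolase) or L-tyrosine (monophenolase) added in separate runs. Absorbance at 475 nm after 25 min; % inhibition versus DMSO control.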

Setting [3] is: L-DOPA, read-out: Tyrosinase inhibition with L-DOPA, IC50.
Setting [4] is: L-tyrosine, read-out: Tyrosinase inhibition with L-tyrosine, IC50.

As for `O=C(/C=C/c1ccc(Cl)cc1)NCCO` [H-427/21, (2E)-3-(4-chlorophenyl)-N-(2-hydroxyethyl)prop-2-enamide], the “Primary melanocytes MTT” value with Primary melanocytes (100 µM) is given as 102.20±2.24 % of solvent control; with Primary melanocytes (150 µM) it was 100.57±2.18 % of solvent control; with Primary melanocytes (200 µM), 93.78±2.18 % of solvent control; in the series on Primary melanocytes (250 µM), 85.19±2.03 % of solvent control. For the same compound, the entries for the “Cytotoxicity study in B16F10 cells % viability” value in series [1] (150 µM), in series [1] (200 µM) and in series [1] (250 µM) were 73.7%, 80.2% and 77.8%, respectively. This compound displayed an RM0 in series [2] of 1.93. Moreover, the “Tyrosinase inhibition with L-DOPA [%]” value in the series on tyrosinase from mushroom (L-DOPA) was 55.77±0.77% (500 µM). For the same compound, the IC50 on tyrosinase from mushroom (setting [3]) was determined as 278 µM; on tyrosinase from mushroom (setting [4]), 196 µM. In the series on tyrosinase from mushroom (L-tyrosine), the “Tyrosinase inhibition with L-tyrosine [%]” value is reported as 67.45±2.66% (500 µM).
As for `O=C(/C=C/c1ccccc1)NCCCCCCO` [H-425/21, (E)-N-(6-hydroxyhexyl)cinnamic acid amide], the figures for the “Cytotoxicity study in B16F10 cells % viability” value in series [1] (150 µM), in series [1] (200 µM) and in series [1] (250 µM) were 109.2%, 98.4% and 86.9%, respectively. In series [2], this compound displayed an RM0 of 2.40. In the series with tyrosinase from mushroom (L-DOPA), the “Tyrosinase inhibition with L-DOPA [%]” value is recorded as 34.63±2.46% (500 µM). The “Tyrosinase inhibition with L-tyrosine [%]” value with tyrosinase from mushroom (L-tyrosine) is 44.61±5.99% (500 µM). Besides, the IC50 at tyrosinase from mushroom (setting [4]) stood at 764 µM.
Regarding `O=C(/C=C/c1ccc(Cl)cc1)NCCCCCO` [Compound A-111, (2E)-3-(4-chlorophenyl)-N-(5-hydroxypentyl)prop-2-enamide], the “Primary melanocytes MTT” value with Primary melanocytes (100 µM) is 104.51±1.19 % of solvent control; in the series on Primary melanocytes (150 µM), 103.09±1.79 % of solvent control; in the series on Primary melanocytes (200 µM), 99.25±1.92 % of solvent control; with Primary melanocytes (250 µM), 93.39±1.60 % of solvent control. The “Cytotoxicity study in B16F10 cells % viability” value in series [1] (150 µM) is reported as 88.2%; in series [1] (200 µM) it was 95.6%; in series [1] (250 µM) it was 89.7%. Besides, the RM0 in series [2] was 2.79. For the same compound, the “Tyrosinase inhibition with L-DOPA [%]” value with tyrosinase from mushroom (L-DOPA, 250 µM) is 59.94±1.56% (250 µM). The half-inhibitory concentration (IC50) amounted to 147 µM at tyrosinase from mushroom (setting [3]) and 37 µM at tyrosinase from mushroom (setting [4]). For the same compound, the “Tyrosinase inhibition with L-tyrosine [%]” value in the series with tyrosinase from mushroom (L-tyrosine) was 88.98±0.98% (500 µM).
`Cc1ccc(/C=C/C(=O)NCCCCCO)cc1` [H-415/21, (2E)-N-(5-hydroxypentyl)-3-(4-methylphenyl)prop-2-enamide]: the “Primary melanocytes MTT” value in the series with Primary melanocytes (100 µM) is recorded as 103.27±1.88 % of solvent control; with Primary melanocytes (150 µM) it was 99.89±2.43 % of solvent control; in the series on Primary melanocytes (200 µM), 94.81±2.92 % of solvent control; in the series with Primary melanocytes (250 µM), 87.64±1.44 % of solvent control. Further, the “Cytotoxicity study in B16F10 cells % viability” value in series [1] (150 µM) was 85.2%; in series [1] (200 µM) it was 90.3%; in series [1] (250 µM) it was 75.7%. For the same compound, in series [2], the RM0 is recorded as 2.49. In the series with tyrosinase from mushroom (L-DOPA), the “Tyrosinase inhibition with L-DOPA [%]” value is 30.43±0.88% (500 µM). Further, the “Tyrosinase inhibition with L-tyrosine [%]” value with tyrosinase from mushroom (L-tyrosine) was 25.04±5.67% (500 µM).
`O=C(/C=C/c1ccccc1)NCCCCCO` [Compound A-133, (2E)-N-(5-hydroxypentyl)-3-phenylprop-2-enamide]: the “Primary melanocytes MTT” value with Primary melanocytes (100 µM) is recorded as 103.69±2.57 % of solvent control; with Primary melanocytes (150 µM), 101.88±2.47 % of solvent control; with Primary melanocytes (200 µM), 97.05±2.96 % of solvent control; in the series with Primary melanocytes (250 µM), 88.88±2.26 % of solvent control. For the same compound, the “Cytotoxicity study in B16F10 cells % viability” value in series [1] (150 µM) was found to be 101.7%; in series [1] (200 µM) it was 94.9%; in series [1] (250 µM) it was 95.6%. The same compound yielded an RM0 in series [2] of 2.15. Besides, the “Tyrosinase inhibition with L-DOPA [%]” value with tyrosinase from mushroom (L-DOPA) is 47.96±1.83% (500 µM). The 50% inhibitory concentration (IC50) on tyrosinase from mushroom (setting [3]) is 523 µM; on tyrosinase from mushroom (setting [4]) it was 450 µM. For the same compound, the “Tyrosinase inhibition with L-tyrosine [%]” value with tyrosinase from mushroom (L-tyrosine) is given as 58.56±4.58% (500 µM).
On to `O=C(/C=C/c1ccc(Cl)cc1)NCCCO` [H-330/21, (2E)-3-(4-chlorophenyl)-N-(3-hydroxypropyl)prop-2-enamide], for which the “Primary melanocytes MTT” value is reported as 101.42±2.21 % of solvent control in the series on Primary melanocytes (100 µM), 97.02±4.49 % of solvent control with Primary melanocytes (150 µM), 93.78±2.29 % of solvent control in the series with Primary melanocytes (200 µM) and 90.27±2.25 % of solvent control in the series with Primary melanocytes (250 µM). Moreover, the entries for the “Cytotoxicity study in B16F10 cells % viability” value in series [1] (150 µM), in series [1] (200 µM) and in series [1] (250 µM) were 78.6%, 82.9% and 83.9%, respectively. Also, the RM0 in series [2] is listed as 1.94. Moreover, in the series on tyrosinase from mushroom (L-DOPA), the “Tyrosinase inhibition with L-DOPA [%]” value was 55.32±1.39% (500 µM). Moreover, the values for the IC50 on tyrosinase from mushroom (setting [3]) and on tyrosinase from mushroom (setting [4]) were 265 µM and 106 µM, respectively. Moreover, the “Tyrosinase inhibition with L-tyrosine [%]” value with tyrosinase from mushroom (L-tyrosine) is on record as 82.49±0.65% (500 µM).
